# Source: US11466047B2, “Cyclic di-nucleotide compounds as sting agonists” (Merck Sharp & Dohme Corp., priority 2017, dated 2022)
# Where two headings read alike, the source gives them in different places.
# Tests used:
# full-length WT STING = full-length WT STING (Homo sapiens (Human), UniProt Q86WV6, H232R); assay: 3H-cGAMP filtration binding assay (WT STING); details: WT STING membrane
# Description: (§1) The ability of compounds to bind STING is quantified by their ability to compete with tritiated cGAMP ligand for human STING receptor membrane using a radioactive filter-binding assay. The binding assay employs STING receptor obtained from Trichoplusia ni cell membranes (T.ni; Expression Systems, cat #94-002F, overexpressing full-length WT STING and tritiated cGAMP ligand.
# The basic WT STING filtration assay protocol is as follows:
# 16 nM of [^3H] c-GAMP ligand was prepared by diluting into assay buffer, and 50 uL of this working stock was manually added to each well of the assay plate. After ligand addition, 2 uL of either titrated test compound, DMSO control (Sigma #276855), or cold cGAMP control was added to the appropriate wells using a BIOMEK FX. The serially titrated compound was prepared on a Hamilton STARPlus CORE in a 96-well plate (Greiner, #651201) using a 1:3 ten-point dose response format. Following compound addition, a 2.2 ug/ml working concentration of STING membrane (SEQ. ID. No. 3) was prepared by diluting concentrated membrane into assay buffer (1×PBS; Invitrogen #SH30028.02) and douncing 7× using a manual tissue homogenizer (Wheaton, #357546). 148 uL of this prepared membrane was then manually added to each well of a 96-well deep-well polypropylene plate (Fisher Scientific, #12-566-121). Compound, ligand, and membrane then incubated for 60 min at RT before the contents of each assay plate were filtered through a 96-well GF/B filter plate (PerkinElmer, #6005250) using a TOMTEC MACH III Cell Harvester equipped with 20 mM HEPES buffer (Fisher Scientific, #BP299500). The filter plates were then dried at 55° C. for 30 min using a pressurized VWR oven before 30 uL of ULTIMA GOLD F scintillate was added to each well. Tritium levels for each reaction well were then measured using a PerkinElmer TopCount plate reader.
# (§2) After normalization to controls, the percent activity for each compound concentration was calculated by measuring the amount of remaining radioactivity. The plot of percent activity versus the log of compound concentration was fit with a 4-parameter dose response equation to calculate EC50 values.
# full-length HAQ STING = full-length HAQ STING (Homo sapiens (Human), UniProt Q86WV6, G230A/H232R/R293Q/R71H); assay: 3H-cGAMP filtration binding assay (HAQ STING); details: competition with tritiated cGAMP ligand, HAQ STING membrane
# Description: The ability of compounds to bind STING is quantified by the ability to compete with tritiated cGAMP ligand for human STING receptor membrane using a radioactive filter-binding assay. The binding assay employs STING receptor obtained from Hi-Five cell membranes overexpressing full-length HAQ STING prepared in-house and tritiated cGAMP ligand also purified in-house.
# as §1, with “#94-002F, www.expressionsystems.com)” for “#94-002F,”, “HAQ” for “WT”
# The basic HAQ STING filtration assay protocol is as follows:
# The compounds were serially titrated by the Hamilton STARPlus CORE in a 96-well plate (Greiner, #651201) using a 1:3 ten-point dose response format. After compound preparation, a 2.2 ug/ml working concentration of STING membrane (SEQ. ID. No. 1) was prepared by diluting concentrated membrane into assay buffer (lx PBS; Invitrogen #SH30028.02) and douncing 7× using a manual tissue homogenizer (Wheaton, #357546). 148 uL of prepared membrane was then manually added to each well of a 96-well deep-well polypropylene plate (Fisher Scientific, #12-566-121). Following membrane addition, 2 uL of either titrated test compound, DMSO control (Sigma #276855), or cold cGAMP control was added to the appropriate wells using a BIOMEK FX. Compound and membrane then preincubated for 60 min at RT to allow compound binding to equilibrate. Following equilibration, 8 nM of [^3H]c-GAMP ligand was prepared by diluting into assay buffer, and 50 uL of this working stock was then manually added to each well of the assay plate. Plates were then incubated at RT for 60 min, and the contents of each assay plate were then filtered through a 96-well GF/B filter plate (PerkinElmer, #6005250) using a TOMTEC MACH III Cell Harvester equipped with 20 mM HEPES buffer (Fisher Scientific, #BP299500). The filter plates were then dried at 55° C. for 30 min using a pressurized oven before 30 uL of ULTIMA GOLD F scintillate was added to each well. Tritium levels for each reaction well were then measured using a PerkinElmer TopCount plate reader.
# as §2
# THP1 cells = assay: IFN-β secretion in THP1 cell culture (5 h); type: cell-based, human; details: 30 μM compound, relative to 2′3′-cGAMP at 30 μM; for activation at 30 µM: Homo sapiens, THP-1, 5 h, read-out: % Effect at 30 μM relative to 2′3′-cGAMP
# Description: The ability of compounds to stimulate the secretion of interferon-beta from THP1 cells was measured using a human IFN-β AlphaLISA kit (Perkin Elmer, Cat. No. AL265F). The basic protocol is as follows:
# A Labcyte Echo 550 acoustic dispenser was used to transfer 120 nL of compound dissolved in DMSO into the wells of an empty, sterile 384-well microplate, (Corning, Cat. No. 3712). THP1 cells (American Type Culture Collection, Cat. No. TIB202) previously frozen in Recovery Medium (Life Technologies, Cat. No. 12648-010) were thawed and immediately diluted 10-fold into 37° C. assay medium (RPMI 1640+L-Glutamine & phenol red, Life Technologies, Cat. No. 11875-085; 0.5% heat inactivated fetal bovine serum, Sigma Aldrich, Cat. No. F4135; 1 mM Sodium Pyruvate, Life Technologies, Cat. No. 11360-070; lx non-essential amino acids; Life Technologies, Cat. No. 11140-050). The cell viability and count was ascertained using a Beckman Coulter V-Cell XR cell counter. The cell suspension was centrifuged at 200×g for 5 min at RT. Cells were resuspended to a density of 0.8×10^6/mL in 37° C. assay medium. Subsequent liquid transfers were performed using either a Matrix electronic multichannel pipette or an Agilent Bravo Automated Liquid Handling Platform.
# The assay was started by dispensing 40 μL of the previously prepared cell suspension into the wells of the plate containing compounds. After 5 h incubation at 37° C., 5% CO2 in a humidified atmosphere, the plate of cells and compounds was centrifuged at 200×g for 5 min at RT. From each well, 5 μL of supernatant was transferred into corresponding wells of a white 384-well plate (Perkin Elmer, Cat. No. 6005620). To these supernatant-containing wells was added 10 μL of 5× Anti-Analyte Acceptor beads (50 μg/mL of AlphaLISA HiBlock Buffer) and incubated for 30 min at RT while shaking on an orbital plate shaker. To each well was added 10 μL of 5× Biotinylated Antibody Anti-analyte (5 nM in AlphaLISA HiBlock Buffer) and incubated on an orbital plate shaker for 60 min at RT or overnight at 4° C. To each well was added 25 μL of 2×SA-Donor beads (80 μg/mL in AlphaLISA HiBlock Buffer) and incubated for 30-45 min at RT in the dark while shaking on an orbital plate shaker. The plate was then read on a Perkin Elmer Envision (λex=680 nm, λem=570 nm). The percent effect of the AlphaLISA signal at each compound concentration was calculated based on 30 uM cGAMP positive controls and 0.3% DMSO negative controls. The plot of percent effect versus the log of compound concentration was fit with a 4-parameter concentration response equation to calculate EC50 values. The test compounds were tested at concentrations 30000, 10000, 3333, 1111, 370.4, 123.4, 41.2, 13.7, 4.6, and 1.5 nM with 0.3% residual DMSO. The control compound, cGAMP was tested at concentrations 100000, 33333, 11111, 3704, 1235, 412, 137, 46, and 15 nM with 0.3% residual DMSO.
# Compounds of the disclosure were evaluated for IFN-β secretion in THP1 cell culture as described above. The following table tabulates the biological data for these compounds as percent activation relative to 2′3′-cGAMP at the 30 μM concentration.
# [1] = EC50, competition with tritiated cGAMP ligand
# [2] = competition with tritiated cGAMP ligand, read-out: EC50
# Chain of full-length WT STING (Q86WV6 whole entry, looked up, stated change not applied): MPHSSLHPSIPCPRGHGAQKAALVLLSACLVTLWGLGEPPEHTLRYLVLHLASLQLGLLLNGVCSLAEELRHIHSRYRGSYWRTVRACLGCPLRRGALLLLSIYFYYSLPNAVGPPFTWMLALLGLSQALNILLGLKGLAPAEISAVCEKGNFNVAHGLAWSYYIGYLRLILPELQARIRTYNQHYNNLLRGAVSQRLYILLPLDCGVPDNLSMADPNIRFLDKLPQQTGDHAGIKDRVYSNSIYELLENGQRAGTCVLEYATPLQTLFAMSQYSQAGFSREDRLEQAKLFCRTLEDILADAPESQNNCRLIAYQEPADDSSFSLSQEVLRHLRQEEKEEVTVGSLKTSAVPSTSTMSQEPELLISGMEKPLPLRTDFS
# Chain of full-length HAQ STING (Q86WV6 whole entry, looked up, stated change not applied): as above
smiles,measurement,setting,value
"Nc1nc2c(ncn2[C@@H]2O[C@@H]3COP(=S)(S)O[C@H]4[C@H](F)[C@H](n5cnc6c(N)ncnc65)O[C@@H]4COP(O)(=S)O[C@@H]2[C@@H]3F)c(=O)[nH]1 (single isomer, unassigned) [Example 1]",EC50,full-length WT STING; [1],< 1 nM
same,EC50,full-length HAQ STING,< 1 nM
same,activation at 30 µM,THP1 cells,165%
"Nc1nc2c(ncn2[C@@H]2O[C@@H]3COP(=S)(S)O[C@H]4[C@H](F)[C@H](n5cnc6c(N)ncnc65)O[C@@H]4COP(O)(=S)O[C@@H]2[C@@H]3F)c(=O)[nH]1 (single isomer, unassigned) [Example 2]",EC50,full-length WT STING; [1],9 nM
same,EC50,full-length HAQ STING,2 nM
same,% Effect at 30 μM relative to 2′3′-cGAMP,THP1 cells,175%
"Nc1nc2c(ncn2[C@@H]2O[C@@H]3COP(=S)(S)O[C@H]4C[C@H](n5cnc6c(N)ncnc65)O[C@@H]4COP(O)(=S)O[C@@H]2C3)c(=O)[nH]1 (single isomer, unassigned) [Example 3]",EC50,full-length WT STING; [2],4 nM
same,EC50,full-length HAQ STING,2 nM
same,activation at 30 µM,THP1 cells,128%
"Nc1nc2c(ncn2[C@@H]2O[C@@H]3COP(=S)(S)O[C@H]4C[C@H](n5ccc6c(N)ncnc65)O[C@@H]4COP(O)(=S)O[C@@H]2C3)c(=O)[nH]1 (single isomer, unassigned) [Example 5]",EC50,full-length WT STING; [2],8 nM
same,EC50,full-length HAQ STING,< 1 nM
same,activation at 30 µM,THP1 cells,95%
"Nc1nc2c(ncn2[C@@H]2O[C@@H]3COP(=S)(S)O[C@H]4C[C@H](n5ccc6c(N)ncnc65)O[C@@H]4COP(O)(=S)O[C@@H]2C3)c(=O)[nH]1 (single isomer, unassigned) [Example 6]",EC50,full-length WT STING; [2],115 nM
same,EC50,full-length HAQ STING,28 nM
same,% Effect at 30 μM relative to 2′3′-cGAMP,THP1 cells,91%
"Nc1nc2c(ncn2[C@@H]2O[C@@H]3COP(=S)(S)O[C@H]4C[C@H](c5cnc6c(N)ncnn56)O[C@@H]4COP(O)(=S)O[C@@H]2C3)c(=O)[nH]1 (single isomer, unassigned) [Example 7]",EC50,full-length WT STING; [2],< 1 nM
same,EC50,full-length HAQ STING,< 1 nM
same,% Effect at 30 μM relative to 2′3′-cGAMP,THP1 cells,173%
"Nc1nc2c(ncn2[C@@H]2O[C@@H]3COP(=S)(S)O[C@H]4C[C@H](c5cnc6c(N)ncnn56)O[C@@H]4COP(O)(=S)O[C@@H]2C3)c(=O)[nH]1 (single isomer, unassigned) [Example 8]",EC50,full-length WT STING; [2],13 nM
same,EC50,full-length HAQ STING,7 nM
same,% Effect at 30 μM relative to 2′3′-cGAMP,THP1 cells,110%
"Nc1nc2c(ncn2[C@@H]2O[C@@H]3COP(=S)(S)O[C@H]4[C@H]5OC[C@]4(COP(O)(=S)O[C@@H]2[C@H]3F)O[C@H]5n2cnc3c(N)ncnc32)c(=O)[nH]1 (stereo partly drawn) [Example 9, 2-amino-9-[(5R,7R,8S,12aR,14R,15R, 15aS,18S)-14-(6-amino-9H-purin-9-yl)-18-fluoro-10-hydroxy-2-sulfanyl-2,10-disulfidohexahydro-14H-15,12a-(epoxymethano)-5,8-methanofuro[3,2-1][1,3,6,9,11,2,10]pentaoxadiphosphacyclotetradecin-7(12H)-yl]-1,9-dihydro-6H-purin-6-one]",EC50,full-length WT STING; [2],4390 nM
same,EC50,full-length HAQ STING,349 nM
same,activation at 30 µM,THP1 cells,26%
"Nc1nc2c(ncn2[C@@H]2O[C@@H]3COP(=S)(S)O[C@H]4[C@H]5OC[C@]4(COP(=O)(O)O[C@@H]2[C@H]3F)O[C@H]5n2cnc3c(N)ncnc32)c(=O)[nH]1 (stereo partly drawn) [Example 17, 2-amino-9-[(5R,7R,8S,12aR,14R,15R,15aS,18S)-14-(6-amino-9H-purin-9-yl)-18-fluoro-10-hydroxy-10-oxido-2-sulfanyl-2-sulfidohexahydro-14H-15,12a-(epoxymethano)-5,8-methanofuro[3,2-l][1,3,6,9,11,2,10]pentaoxadiphosphacyclotetradecin-7(12H)-yl]-1,9-dihydro-6H-purin-6-one]",EC50,full-length HAQ STING,15 nM
same,activation at 30 µM,THP1 cells,145%
"Nc1nc2c(ncn2[C@@H]2O[C@@H]3COP(O)(=S)O[C@H]4C[C@H](n5cnc6c(=O)[nH]cnc65)O[C@@H]4COP(=S)(S)O[C@@H]2C3)c(=O)[nH]1 (stereo partly drawn) [Example 26, 2-amino-9-[(5S,7R,8R,12aR,14R,15aS)-2-hydroxy-14-(6-oxo-1,6-dihydro-9H-purin-9-yl)-10-sulfanyl-2,10-disulfidooctahydro-12H-5,8-methanofuro[3,2-1][1,3,6,9,11,2,10]pentaoxadiphosphacyclotetradecin-7-yl]-1,9-dihydro-6H-purin-6-one]",EC50,full-length WT STING; [2],409 nM
same,activation at 30 µM,THP1 cells,75%
